Data published in patent US5376371A, “Compositions for treating fat deposits in humans” (Indena S.p.A., priority 1989, dated 1994).

Tests used:
phosphodiesterase [1] = assay: Phosphodiesterase inhibition, cyclic GMP substrate; format: biochemical; conditions: 1 μM substrate; read-out: I50 Cyclic GMP
Experimental: (§1) The determination of the phosphodiesterase activity was carried out according to the method of Beretz et al. (Experientia, 34,1054,1977). The method consists in measuring (3H) products resulting from incubation of (3H)-c-AMP with the phosphodiesterase preparation and with an excess of […]. An anion exchange resin was used in a batch process to remove the residual substrate. The inibition of PDE by flavonoids was studied in experiments in which the concentration of c-AMP was held constant at 1 μM.
(§2) Assays were performed with 1 μM substrate, I50 was calculated as described above.

phosphodiesterase [2] = assay: Phosphodiesterase inhibition, cyclic AMP substrate; format: biochemical; conditions: 1 μM substrate; read-out: I50 Cyclic AMP
Experimental: as §1, §2

phosphodiesterase [3] = conditions: stated as known; cited from earlier work

Molecule | IC50 (phosphodiesterase [1]) [µM] | IC50 (phosphodiesterase [2]) [µM] | inhibition of phosphodiesterase (phosphodiesterase [3])
ginkgonetine | 0.49 | 0.88 | 
O=c1cc(-c2ccc(O)c(-c3c(O)cc(O)c4c(=O)cc(-c5ccc(O)cc5)oc34)c2)oc2cc(O)cc(O)c12 [Amentoflavone, amentoflavone] | 0.58 | 0.65 | powerful inhibitor of phosphodiesterase
O=C(O)c1cc(=O)c2c(OCC(O)COc3cccc4oc(C(=O)O)cc(=O)c34)cccc2o1 [Cromoglycate Na, reference compound] | 235 | 2000 | 
COc1ccc(Cc2nccc3cc(OC)c(OC)cc23)cc1OC [Papaverine, reference compound] | 12.4 | 5 | 
